Read-outs that look alike come from different tables or passages of the source. Some results are limits rather than exact numbers.

As a reminder, the EC50 is the concentration at which the effect is half-maximal. As a reminder, the Kd is the equilibrium constant for the complex coming apart. A low value points to tighter binding.

The subject of one data set is ZIKV-RLuc. The experiment in a line: microbe, parasite or virus in culture. Type of data set: cell-based, Zika virus. The conditions noted are these: for Fold-change of EC50, Wt: ZIKV RLuc assay, reference.
Another data set has as its system CHIKV. The experiment in a line: microbe, parasite or virus in culture. Type of data set: cell-based. As to conditions: Vero 76; read-out: EC50-CPE CHIKV.
In another data set the target is ZIKV NS4B (Zika virus, UniProt A0A142I5B9). Briefly: biochemical. In kind it is binding.
The test system of data set [1] is ZIKV PLCal. The experiment in a line: CPE-based anti-ZIKV concentration-response assay (96-well). Type of data set: cell-based, Zika virus.
Data set [2] concerns ZIKV PLCal. The experiment in a line: Virus yield (titer) reduction assay in Huh 7.5.1 cells. In kind it is cell-based, Zika virus. The conditions noted are these: 1 µM.
Another data set relates to ZIKV-RLuc NS4B V241L. In kind it is cell-based, Zika virus.
For a further data set, the system named is ZIKV-RLuc NS4B A245T. In kind it is cell-based, Zika virus.
For another data set, the system named is ZIKV-RLuc NS4B V248G. In kind it is cell-based, Zika virus.
Another data set in a line: in vitro. As to conditions: African green monkey, CC50 Vero76.
The mark [3] stands for this setting: wild type ZIKV-RLuc, Vero 76, MOI 0.1, three days, read-out: EC50 ZIKV-RLuc.
Setting [4] is: Zika virus, 72 h, Vero 76, MOI 0.05, 3-day incubation, CellTiter-Glo, read-out: EC50-CPE ZIKV-PLCal.
[5] abbreviates: Zika virus, Fig 7, read-out: CPE EC50.
Setting [6] is: Zika virus, Vero 76, 72 h, wild type ZIKV-RLuc, Vero 76, MOI 0.1, three days, read-out: EC50 ZIKV-RLuc.
Setting [7] is: Zika virus, Fig 7, read-out: RLuc EC50.
Where [8] appears, read: Vero 76, MOI 0.05, 3-day incubation, CellTiter-Glo, read-out: EC50-CPE ZIKV-PLCal.

As to `COc1ccc(C(C)NC(=O)c2ccc(C(C)(C)C)cc2)cc1` (racemic) [MWAC-3489], the EC50 was 1.22 ± 0.86 µM in the data set on ZIKV-RLuc (setting [3]) and > 50 µM with CHIKV.
Consider `CC(C)(C)c1ccc(C(=O)N2C[C@H](C(=O)O)[C@@H](c3cccc(F)c3)C2)cc1` (relative stereo) [MWAC-3533], for which the EC50 in the data set on ZIKV-RLuc (Zika virus, Vero 76, 72 h, read-out: EC50 ZIKV-RLuc) is ~16 µM. The Kd on ZIKV NS4B was ~35 µM. The “19F-NMR signal change with ZIKV NS4B” value at ZIKV NS4B (compound 50 µM) is “shifted by the presence of ZIKV NS4B in a concentration-dependent manner”.
Consider `CC(C)(C)c1ccc(C(=O)N[C@@H]2C[C@H]3CC[C@@H]2C3)cc1` (relative stereo) [MWAC-3989, N-((exo)-bicyclo[2.2.1]heptan-2-yl)-4-(tert-butyl)benzamide], for which the EC50 turned out to be 0.46 ± 0.1 µM with ZIKV PLCal [1] (setting [4]); 0.34 µM in the data set with ZIKV PLCal [1] (setting [5]); 0.07 ± 0.007 µM in the data set on ZIKV-RLuc (setting [6]); 0.115 µM with ZIKV-RLuc (setting [7]); 0.13 ± 0.068 µM with ZIKV-RLuc (setting [3]); 10.6 ± 2.04 µM in the data set on ZIKV-RLuc NS4B V241L. Besides, the EC50 with ZIKV-RLuc NS4B A245T came out at 0.45 ± 0.05 µM; in the data set with ZIKV-RLuc NS4B V248G, 4 ± 0.76 µM. Besides, the “VYR: Virus Yield reduction (Log 10)” value with ZIKV PLCal [2] is listed as -0.18 ± 0.14 Log 10. In the data set “in vitro”, the CC50 is > 50 µM.
Take `CC(C)(C)c1ccc(C(=O)N[C@H]2C[C@H]3CC[C@@H]2C3)cc1` (relative stereo) [MWAC-3992, N-((endo)-bicyclo[2.2.1]heptan-2-yl)-4-(tert-butyl)benzamide]: the EC50 in the data set on ZIKV PLCal [1] (setting [5]) amounted to 0.94 µM; in the data set with ZIKV-RLuc (setting [6]) it was 0.34 ± 0.018 µM; in the data set with ZIKV-RLuc (setting [7]) it was 0.58 µM; with ZIKV-RLuc NS4B V241L it was 27.5 µM; in the data set on ZIKV-RLuc NS4B A245T, 2.77 ± 0.31 µM; with ZIKV-RLuc NS4B V248G it was 16.8 ± 2.54 µM. Moreover, in the data set on ZIKV PLCal [2], the “VYR: Virus Yield reduction (Log 10)” value is given as -1.20 ± 0.09 Log 10. In “in vitro”, this compound yielded a CC50 of 63 µM.
On to `CC(C)(C)c1ccc(C(=O)NC2CCS(=O)(=O)C2)cc1` (centres unmarked) [MWAC-3506], for which the EC50 in the data set with ZIKV PLCal [1] (setting [4]) and with ZIKV-RLuc (setting [6]) was > 50 µM in each case. Besides, the CC50 in “in vitro” is > 50 µM.
In the case of `CC(C)(C)c1ccc(C(=O)NC2CC3CCC2C3)cc1` (centres unmarked) [MWAC-3508], the EC50 with ZIKV PLCal [1] (setting [5]) was 0.36 µM; with ZIKV-RLuc (setting [6]), 0.11 ± 0.002 µM; in the data set with ZIKV-RLuc (setting [7]), 0.15 µM; in the data set with ZIKV-RLuc NS4B V241L, 13.2 ± 1.87 µM; with ZIKV-RLuc NS4B A245T it was 0.81 ± 0.11 µM; with ZIKV-RLuc NS4B V248G, 4.37 ± 0.37 µM. Besides, the “VYR: Virus Yield reduction (Log 10)” value in the data set on ZIKV PLCal [2] is -0.93 ± 0.07 Log 10. The CC50 in the data set “in vitro” is > 50 µM.
Turning to `CC(C)(C)c1ccc(C(=O)NC2CCOC2)cc1` (centres unmarked) [MWAC-3509], the EC50 was 18 µM in the data set on ZIKV PLCal [1] (setting [4]) and 6.1 µM in the data set on ZIKV-RLuc (setting [6]). Also, in the data set “in vitro”, the CC50 is > 50 µM.
Take `CC(NC(=O)c1ccc(C(C)(C)C)cc1)c1ccncc1` (centres unmarked) [MWAC-3510]: the EC50 is > 50 µM with ZIKV PLCal [1] (setting [4]) and 15 µM with ZIKV-RLuc (setting [6]). In addition, the CC50 in the data set “in vitro” is > 48 µM.
`CC(C)(C)c1ccc(C(=O)NC2CCN(Cc3ccccc3)CC2)cc1` [MWAC-3512]: the EC50 was found to be 44 µM in the data set on ZIKV PLCal [1] (setting [4]) and 7.4 µM in the data set on ZIKV-RLuc (setting [6]). The CC50 in the data set “in vitro” worked out at 58 µM.
With `O=C(NC1CC2CCC1C2)c1ccc(C2CC2)cc1` (stereo not drawn) [MWAC-3990, N-((exo)-bicyclo[2.2.1]heptan-2-yl)-4-cyclopropylbenzamide], the EC50 in the data set on ZIKV PLCal [1] (setting [8]) turned out to be 33.1 ± 25.5 µM; in the data set on ZIKV-RLuc (setting [3]), 3.01 ± 1.11 µM. For the same compound, the CC50 in the data set with Vero76 was determined as 22.7 µM.
In the case of `CC(C)c1ccc(C(=O)NC2CC3CCC2C3)cc1` (stereo not drawn) [MWAC-3991, N-((exo)-bicyclo[2.2.1]heptan-2-yl)-4-isopropylbenzamide], the results for the EC50 in the data set with ZIKV PLCal [1] (setting [8]) and in the data set on ZIKV-RLuc (setting [3]) were 2.58 ± 1.39 µM and 0.72 ± 0.22 µM, respectively. The CC50 in the data set with Vero76 is > 50 µM.
As for `CC(C)(O)c1ccc(C(=O)NC2CC3CCC2C3)cc1` (stereo not drawn) [MWAC-3995, N-((exo)-bicyclo[2.2.1]heptan-2-yl)-4-(2-hydroxypropan-2-yl)benzamide], the values for the EC50 with ZIKV PLCal [1] (setting [8]) and in the data set on ZIKV-RLuc (setting [3]) were 39 µM and 13.9 µM, respectively. Also, in the data set with Vero76, the CC50 was > 50 µM.
Consider `CCc1ccc(C(=O)NC2CC3CCC2C3)cc1` (stereo not drawn) [MWAC-3996, N-((exo)-bicyclo[2.2.1]heptan-2-yl)-4-ethylbenzamide], for which the EC50 in the data set with ZIKV PLCal [1] (setting [8]) turned out to be 27.1 ± 16.8 µM; in the data set with ZIKV-RLuc (setting [3]) it was 4.88 ± 1.36 µM. The CC50 in the data set on Vero76 is > 50 µM.
With `O=C(NC1CC2CCC1C2)c1ccc(C(F)(F)F)cc1` (stereo not drawn) [MWAC-3997, N-((exo)-bicyclo[2.2.1]heptan-2-yl)-4-(trifluoromethyl)benzamide], the results for the EC50 in the data set with ZIKV PLCal [1] (setting [8]) and with ZIKV-RLuc (setting [3]) were 39 ± 15.3 µM and 4.06 ± 1.17 µM, respectively. In addition, the CC50 with Vero76 is > 50 µM.
For `COC(C)(C)c1ccc(C(=O)NC2CC3CCC2C3)cc1` (stereo not drawn) [MWAC-3998, N-((exo)-bicyclo[2.2.1]heptan-2-yl)-4-(2-methoxypropan-2-yl)benzamide], in that order: 2.72 ± 1.24 µM, 0.76 ± 0.05 µM and > 50 µM.
In the case of `CC(C)(C)c1ccc(C(=O)NC2CCCCC2)cc1` [MWAC-4000, 4-(tert-butyl)-N-cyclohexylbenzamide], the EC50 was 0.21 µM in the data set on ZIKV PLCal [1] (setting [5]); 0.03 ± 0.003 µM in the data set with ZIKV-RLuc (setting [6]); 0.09 µM with ZIKV-RLuc (setting [7]); 21.3 ± 4.87 µM in the data set on ZIKV-RLuc NS4B V241L; 0.68 ± 0.09 µM in the data set on ZIKV-RLuc NS4B A245T; 6.6 ± 0.53 µM in the data set with ZIKV-RLuc NS4B V248G. Besides, the “Fold-change of EC50, Wt” value with ZIKV-RLuc turned out to be 1. For the same compound, the “VYR: Virus Yield reduction (Log 10)” value with ZIKV PLCal [2] is reported as -1.67 ± 0.10 Log 10. The “Fold-increase / fold-change of EC50, NS4B V241L vs wild type” value with ZIKV-RLuc NS4B V241L was found to be 659.3. Moreover, in the data set with ZIKV-RLuc NS4B A245T, the “Fold-increase / fold-change of EC50, NS4B A245T vs wild type” value was found to be 21.2. The “Fold-increase / fold-change of EC50, NS4B V248G vs wild type” value in the data set with ZIKV-RLuc NS4B V248G is reported as 204.7. Besides, the CC50 in “in vitro” is > 50 µM.
For `CC(C)(C)c1ccc(C(=O)NC2CCCCCC2)cc1` [MWAC-4001, 4-(tert-butyl)-N-cycloheptylbenzamide], the EC50 is 0.09 µM in the data set with ZIKV PLCal [1] (setting [5]); 0.04 ± 0.006 µM in the data set with ZIKV-RLuc (setting [6]); 0.05 µM with ZIKV-RLuc (setting [7]); 24 µM in the data set on ZIKV-RLuc NS4B V241L; 1.07 ± 0.16 µM in the data set with ZIKV-RLuc NS4B A245T; 10.1 ± 0.81 µM in the data set on ZIKV-RLuc NS4B V248G. For the same compound, the “Fold-change of EC50, Wt” value with ZIKV-RLuc is 1. Also, in the data set with ZIKV PLCal [2], the “VYR: Virus Yield reduction (Log 10)” value is reported as -2.68 ± 0.36 Log 10. In addition, in the data set on ZIKV-RLuc NS4B V241L, the “Fold-increase / fold-change of EC50, NS4B V241L vs wild type” value is listed as 564.2. In the data set on ZIKV-RLuc NS4B A245T, the “Fold-increase / fold-change of EC50, NS4B A245T vs wild type” value came out at 25.1. Further, in the data set with ZIKV-RLuc NS4B V248G, the “Fold-increase / fold-change of EC50, NS4B V248G vs wild type” value is on record as 238.2. In “in vitro”, the CC50 came out at 12 µM.
For the compound `Cc1ccc(C(=O)NC2CC3CCC2C3)cc1` (stereo not drawn) [MWAC-4010, N-((exo)-bicyclo[2.2.1]heptan-2-yl)-4-methylbenzamide], in the data set with Vero76, the CC50 is > 50 µM.

These data come from publication PMC13065080, “Discovery of a potent anti-Zika virus benzamide series targeting the viral protein NS4B” (PLOS Pathogens, 2026).
